This is an account of results in patent US20040037806A1, “Aldosterone blocker therapy to prevent or treat inflammation-related disorders” (Pharmacia Corporation, priority 2002, published 2004).

Common to all, as to assay type: in vivo, rat
Assay [1] is described as follows: Assay A: angiotensin II infusion model, urinary Na+/K+ ratio (natriuresis index). The settings on record: Wistar rats, 1% NaCl, angiotensin II 25 ng/min sc; eplerenone 100 mpk. The source says: Electrolyte excretion. The ratio between daily urinary Na^+ excretion and urinary K^+ excretion (U Na^+/K^+ ratio) was used as an index for natriuresis. Urinary Na^+/K^+ ratio was similar in all groups before the start of the treatments, and increased similarly in all animals upon initiation of the high salt diet.

A short description of assay [2]: Urinary protein excretion in angiotensin II infused, captopril treated stroke prone spontaneously hypertensive rats. The settings on record: captopril treated stroke prone spontaneously hypertensive rats (FIG. 35).
The nature of assay [3]: Histopathological scores for renal injury in angiotensin II infused, captopril treated stroke prone spontaneously hypertensive rats. The settings on record: captopril treated stroke prone spontaneously hypertensive rats (FIG. 36).
A further assay has as its system osteopontin. The experiment in a line: Assay B: osteopontin mRNA by quantitative RT-PCR (Taqman). As to conditions: aldosterone/salt-treated rats receiving vehicle. The method, then: Assay B: In Vivo Aldosterone Infusion Model Determination of osteopontin and COX-2 was performed by quantitative RT-PCR (Taqman). Osteopontin was also identified in the heart by immunohistochemistry.
In general terms: Real-time PCR tracks product formation cycle by cycle.

The subject of assay [4] is Transforming growth factor beta 1 (TGFβ1). The experiment in a line: Assay C: TGFβ1 mRNA, TaqMan. As to conditions: aldosterone+salt, 7, 14, 30 days. The method, then: The procedure of Assay B was expanded upon in a further study. […] Myocardial tissue from animals in each treatment group was examined after 7, 14, or 30 days of treatment.
Potassium chloride supplementation was added to the saline solution in order to prevent the potential hypokalemia associated with aldosterone excess.
Treatment At the time of the surgery, an Alzet 2002 osmotic minipump (Alza Corp., Palo Alto, Calif.) containing either vehicle (9% ethanol/87% propylene glycol/4% dH2O) or 1.0 mg/mL d-aldosterone (Sigma Chemical, St. Louis, Mo.) was inserted subcutaneously at the nape of the neck. Aldosterone was administered at a dose of 0.75 µg/hour. […]
The fluorogenic 5′-nuclease assay (TaqMan PCR) using Applied Biosystems' 7700 Sequence Detection System (Applied Biosystems, Foster City, Calif.) allowed for real time detection/quantitation of a specific gene by monitoring the increase in fluorescence of a gene-specific, dye-labeled oligonucleotide probe. […] When the probe was annealed to the target gene, fluorescence of 6FAM was prevented by the close proximity of TAMRA. The exonuclease activity of Taq polymerase released the dyes from the oligonucleotide probe by displacing the probe from the target sequence resulting in fluorescence excitation in direct proportion to the amount of target message present. […]

For `COC(=O)[C@@H]1CC2=CC(=O)CC[C@]2(C)[C@@]23O[C@@H]2C[C@@]2(C)[C@@H](CC[C@@]24CCC(=O)O4)[C@H]13` [eplerenone], the “Urinary Na+/K+ ratio (index for natriuresis)” value in assay [1] was “did not produce a significant diuretic or natriuretic effect”. The Urinary protein excretion result in assay [2] is “inhibition of increased urinary protein excretion”. For the same compound, the “Histopathological scores for renal injury” value in assay [3] is listed as “reduction in histopathological scores for renal injury”.
On to `C[C@]12CCC(=O)C=C1CC[C@@H]1[C@@H]2[C@@H](O)C[C@]2(C=O)[C@@H](C(=O)CO)CC[C@@H]12` [aldosterone], for which the “Upregulation of osteopontin mRNA vs control” value with osteopontin worked out at 7 fold. The “TGF-β mRNA levels” value in assay [4] was “not upregulated at any of the time points examined”.
